The values below come from patent publication US11465978B2, “Anthranilic amides and the use thereof” (THE ADMINISTRATORS OF THE TULANE EDUCATIONAL FUND, priority 2013, dated 2022).

In one assay the test system is pERK5. Briefly: Western blot, inhibition of EGF-mediated formation of pERK5 in MDA-MB-231 cells. Type of assay: cell-based. The procedure:
FIG. 9 is a set of bar graphs showing a Western blot analysis of potential MEK5 inhibitors. The MDA-MB-231 triple negative breast cancer cell line was pretreated with compounds (10 μM) for 30 minutes followed by stimulation with epidermal growth factor (EGF, 50 ng/mL) for 15 minutes. Vehicle-treated cells were pretreated with DMSO for 30 minutes prior to EGF stimulation for 15 minutes. Protein visualization and quantification analysis were performed using LI-COR Odyssey Imager. * P<0.05 vs. Vehicle, one-way ANOVA followed by Tukey-Kramer test (n=3).
A number of compounds were tested for their potential as MEK5 inhibitors. The MDA-MB-231 triple negative breast cancer cell line was pretreated with 10 μM of compounds 24, 9b, 9a, 9c, 9e, 9f, 9d, 9h, 23, 7, and 15 for 30 minutes followed by stimulation with epidermal growth factor (EGF, 50 ng/mL) for 15 minutes. Vehicle-treated cells and known MEK1/2 inhibitor cells were pretreated with DMSO and U0126 respectively for 30 minutes prior to EGF stimulation for 15 minutes. Protein visualization and quantification analysis was performed using LI-COR Odyssey Imager. The results of the Western blot analysis are shown in FIG. 9. * P<0.05 vs. Vehicle, one-way ANOVA followed by Tukey-Kramer test (n=3).
MDA-MB-231 cells were grown on 10 cm cell culture plates [Sarstedt] in Dulbecco's Modified Eagle's Medium (DMEM; Gibco) with Ham's F12 Nutrient Mixture (1:1) (Invitrogen), 10% heat-inactivated FBS [Atlanta Biological and 0.5% penicillin/streptomycin [Gibco]. Cells were maintained at 37° C. with 5% CO2. Plating of the cells was done 36 hours before treatment in 35 mm culture plates [Sarstedt] and allowed to reach confluence. To test MEK-5 inhibitors, the cells were treated with epidermal growth factor (EGF; Sigma-Aldrich) 30 min after treatment with the compounds. 15 min after the addition of EGF, the cells were washed with 1×PBS [Sigma-Aldrich] and then lysed in 1% Triton X-100 buffer containing 20 mM Tris (pH 6.8), 137 mM NaCl, 25 mM beta glycerophosphate, 2 mM NaPPi, 2 mM EDTA, 1 mM Na3VO4, 10% glycerol, 5 μg/mL leupeptin, 5 μg/mL aprotinin, 2 mM benzamidine, 0.5 mM DTT, and 1 mM PMSF. The lysates were then centrifuged at 10,000 rpm for 10 min at 4° C.
Total protein content was assessed by Bradford Bio-Rad protein assay (Cat. No. 500-0006, Bio-Rad, Hercules, Calif.) and 30 μg of protein was loaded on a 8% SDS-PAGE gel for phosphorylated and total ERK1/2 and ERK5 proteins. After running the samples, gels were transferred to a nitrocellulose membrane (Cat. No. 926-31092, Licor Biosciences, Lincoln, Nebr.). After transfer, membranes were washed for 5 min with 1×PBS and blocked for 1 h in a Casein Blocking Buffer (Cat. No. 927-40200, Licor Biosciences) at room temperature. Membranes were then incubated overnight at 4° C. in primary antibody in CBB with 0.2% Tween-20. Antibodies included rabbit anti-phospho-ERK1/2 (Dilution—1:1000, Cat. No. 9101, Cell Signaling, Beverly, Mass.), mouse anti-total ERK1/2 (Dilution—1:1000, Cat. No. 9107, Cell Signaling), and rabbit anti-total ERK5 (Dilution—1:1,000, Cat. No. 3372, Cell Signaling). Mouse anti-α-Tubulin (Dilution—1:10,000, Cat. No. T5168, Sigma-Aldrich) was used as a loading control. After incubation with primary antibody, blots were washed in 1×PBS solution with 0.2% Tween-20 (1×PBS-T) and incubated with goat anti-rabbit (Dilution—1:10,000, Cat. No. 926-68021, LICOR Biosciences) and goat anti-mouse (Dilution—1:10,000, Cat. No. 926-32210, LICOR Biosciences) secondary antibodies for 1 h at room temperature. After washing the membranes with 1×PBS-T, the protein bands were visualized on an Odyssey Infrared Imager and quantified with Odyssey software (LICOR Biosciences).

In another assay the test system is Mia-PaCa2 cells. Briefly: Crystal violet morphology of pancreatic cancer cells. Type of assay: cell-based. As to conditions: Mia-PaCa2, 3 days. The protocol: (A) Mia-PaCa2 cells were seeded in a 96-well plate at a density of 1,000 cells per well and treated with vehicle (DMSO) and SC-1-151. After 3 days, cells were fixed with glutaraldehyde and stained with crystal violet. (B) qPCR for EMT-regulating genes following SC-1-151 treatment. Pancreatic cancer cells were grown in 5% CS phenol free DMEM for 48 hours before treatment with vehicle (DMSO) or SC-1-151 (1 μM) for 24 hours. Cycle number was normalized to R-actin and vehicle-treated cells scaled to 1, n=3.

For `NC(=O)c1ccc(F)c(F)c1Nc1ccc(I)cc1F` [Compound 3, 3,4-difluoro-2-((2-fluoro-4-iodophenyl)amino)benzamide], in the assay with pERK5 (Example 3 table, DMSO = 0, MDA-MB-231, EGF stimulation), the “pERK-5 decrease (%)” value is 59%. The inhibition at 10 µM with pERK5 (Homo sapiens, MDA-MB-231, Table 1, MDA-MB-231, compounds 10 μM 30 min, then EGF 50 ng/mL 15 min, read-out: cellular pERK5 decrease (%)) amounted to 56.5%. In addition, the “phenotype of pancreatic cancer cells” value with Mia-PaCa2 cells is on record as “induces an epithelial phenotype”.
